Source: patent US11459315B2, “Modulators of methyl modifying enzymes, compositions and uses thereof” (Constellation Pharmaceuticals, Inc., priority 2017, dated 2022)
Read-outs that look alike come from different tables or passages of the source.

Experiments:
PRC2 containing wt EZH2 = PRC2 containing wt EZH2 (Homo sapiens (Human), UniProt Q15910); test: EZH2 biochemical assay (IC50), 3H-SAM incorporation into biotinylated H3 peptide; conditions: 30 pM PRC2 containing wt EZH2, 3-5 h pre-incubation
Sequence of PRC2 containing wt EZH2 (Q15910 whole entry): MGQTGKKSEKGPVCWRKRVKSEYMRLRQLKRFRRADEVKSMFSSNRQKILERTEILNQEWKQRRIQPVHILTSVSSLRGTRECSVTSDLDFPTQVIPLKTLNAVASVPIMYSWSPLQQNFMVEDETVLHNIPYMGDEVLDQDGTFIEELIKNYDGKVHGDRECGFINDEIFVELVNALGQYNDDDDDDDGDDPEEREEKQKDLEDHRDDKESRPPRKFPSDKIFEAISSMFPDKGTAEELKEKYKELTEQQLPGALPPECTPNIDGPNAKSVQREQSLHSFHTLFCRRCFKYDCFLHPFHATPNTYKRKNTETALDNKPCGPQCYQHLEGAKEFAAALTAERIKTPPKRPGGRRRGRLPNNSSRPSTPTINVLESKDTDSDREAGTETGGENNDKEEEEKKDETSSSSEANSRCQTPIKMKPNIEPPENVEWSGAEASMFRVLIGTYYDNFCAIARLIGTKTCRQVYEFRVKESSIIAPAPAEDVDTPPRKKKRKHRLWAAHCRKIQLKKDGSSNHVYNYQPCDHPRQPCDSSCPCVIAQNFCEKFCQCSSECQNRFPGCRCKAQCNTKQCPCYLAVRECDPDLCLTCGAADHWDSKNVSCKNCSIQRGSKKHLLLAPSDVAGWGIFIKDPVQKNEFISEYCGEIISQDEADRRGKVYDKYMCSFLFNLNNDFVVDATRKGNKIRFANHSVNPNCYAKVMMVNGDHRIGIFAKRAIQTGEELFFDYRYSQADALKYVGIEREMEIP
Sequence of PRC2 containing wt EZH2 (O75530 whole entry partner): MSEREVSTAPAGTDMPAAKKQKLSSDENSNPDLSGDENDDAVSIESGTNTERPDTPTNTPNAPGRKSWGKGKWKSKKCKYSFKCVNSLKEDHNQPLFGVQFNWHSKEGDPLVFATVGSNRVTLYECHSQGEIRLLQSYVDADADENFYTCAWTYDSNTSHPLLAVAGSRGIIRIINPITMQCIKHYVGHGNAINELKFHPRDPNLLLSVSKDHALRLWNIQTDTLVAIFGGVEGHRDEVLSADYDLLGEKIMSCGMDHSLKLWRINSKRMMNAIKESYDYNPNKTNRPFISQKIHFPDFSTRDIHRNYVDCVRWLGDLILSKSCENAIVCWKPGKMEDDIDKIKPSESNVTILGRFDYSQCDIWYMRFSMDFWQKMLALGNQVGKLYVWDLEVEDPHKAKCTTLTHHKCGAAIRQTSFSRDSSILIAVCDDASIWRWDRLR
Sequence of PRC2 containing wt EZH2 (Q15022 whole entry partner): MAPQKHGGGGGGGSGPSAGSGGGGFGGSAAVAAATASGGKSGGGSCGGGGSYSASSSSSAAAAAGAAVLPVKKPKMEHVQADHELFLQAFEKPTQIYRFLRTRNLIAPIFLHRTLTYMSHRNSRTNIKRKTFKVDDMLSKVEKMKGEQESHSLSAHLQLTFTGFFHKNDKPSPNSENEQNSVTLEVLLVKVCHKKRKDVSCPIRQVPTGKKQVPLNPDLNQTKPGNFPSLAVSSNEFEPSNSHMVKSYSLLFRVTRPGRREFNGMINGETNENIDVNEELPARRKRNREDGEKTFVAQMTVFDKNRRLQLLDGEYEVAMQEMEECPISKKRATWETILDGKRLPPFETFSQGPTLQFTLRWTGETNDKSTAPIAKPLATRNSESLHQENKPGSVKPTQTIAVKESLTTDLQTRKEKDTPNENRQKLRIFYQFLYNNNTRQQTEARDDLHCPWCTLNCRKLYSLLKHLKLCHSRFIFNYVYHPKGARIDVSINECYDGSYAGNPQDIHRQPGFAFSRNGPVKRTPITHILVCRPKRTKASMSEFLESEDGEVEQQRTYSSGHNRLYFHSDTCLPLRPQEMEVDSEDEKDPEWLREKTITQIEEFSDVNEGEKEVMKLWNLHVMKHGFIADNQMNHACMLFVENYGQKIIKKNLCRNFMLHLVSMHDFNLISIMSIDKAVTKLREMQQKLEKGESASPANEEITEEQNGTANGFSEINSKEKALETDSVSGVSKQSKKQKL
Sequence of PRC2 containing wt EZH2 (Q09028 whole entry partner): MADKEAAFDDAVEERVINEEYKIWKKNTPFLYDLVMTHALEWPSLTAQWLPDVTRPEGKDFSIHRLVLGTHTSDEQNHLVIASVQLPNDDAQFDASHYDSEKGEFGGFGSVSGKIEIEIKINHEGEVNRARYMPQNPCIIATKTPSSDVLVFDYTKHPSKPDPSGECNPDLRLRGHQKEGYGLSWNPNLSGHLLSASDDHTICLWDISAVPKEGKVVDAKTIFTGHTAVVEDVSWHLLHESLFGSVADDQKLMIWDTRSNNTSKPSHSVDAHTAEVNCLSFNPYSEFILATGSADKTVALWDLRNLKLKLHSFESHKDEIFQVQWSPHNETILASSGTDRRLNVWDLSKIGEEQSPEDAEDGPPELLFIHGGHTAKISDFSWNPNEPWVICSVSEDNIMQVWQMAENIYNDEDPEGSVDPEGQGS
Sequence of PRC2 containing wt EZH2 (Q6ZN18 whole entry partner): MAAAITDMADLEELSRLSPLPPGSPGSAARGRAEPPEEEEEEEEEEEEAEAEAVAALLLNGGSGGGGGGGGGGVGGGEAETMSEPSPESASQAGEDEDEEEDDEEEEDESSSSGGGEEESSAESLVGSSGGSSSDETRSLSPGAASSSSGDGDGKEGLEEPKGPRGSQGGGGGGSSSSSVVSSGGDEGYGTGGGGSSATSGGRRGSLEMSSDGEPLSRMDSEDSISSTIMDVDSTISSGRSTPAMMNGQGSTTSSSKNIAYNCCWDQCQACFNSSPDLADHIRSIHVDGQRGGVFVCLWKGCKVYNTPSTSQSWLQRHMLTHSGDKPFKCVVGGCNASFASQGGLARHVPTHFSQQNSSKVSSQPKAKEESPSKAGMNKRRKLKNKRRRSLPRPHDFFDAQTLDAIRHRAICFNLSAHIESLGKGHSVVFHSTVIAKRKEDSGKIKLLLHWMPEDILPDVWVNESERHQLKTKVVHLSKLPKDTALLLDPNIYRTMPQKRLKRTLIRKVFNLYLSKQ
Outline: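 The PRC2 pentamer with wt EZH2 (30 pM) was pre-incubated for 3-5 h with 450 nM SAM plus 450 nM ³H-SAM, 2 µM H3K27me3 activating peptide and compound (0.8% DMSO) in Tris at pH 8.5. Biotinylated H3K27me1 peptide was added and the reaction ran 18-22 h at RT. Incorporated ³H was captured on streptavidin plates, and IC50 was taken from a four-parameter fit.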

[1] = tested on: H3K27me3 mark in HeLa cells (EZH2); test: H3K27me3 Alpha Hela Assay (AlphaLISA); type: cell-based; conditions: Homo sapiens, HeLa, 72 h, HeLa cells, 72 hrs; read-out: EZH2 Cell H3K27me3 Alpha HeLa (EC50 K27me3)
Outline: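 HeLa cells (1,000/well) treated with ten 3-fold compound doses for 72 h at 37 °C; lysates extracted and H3K27me3 detected by AlphaLISA with anti-K27me3 acceptor beads, biotinylated anti-H3 (3 nM) and streptavidin donor beads. EC50 from DMSO-normalized dose-response curves; duplicate plate assessed viability.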

What does the source list for `CSc1cc(C)[nH]c(=O)c1CNC(=O)c1c(C)n([C@H](C)C2CCC(NCC(F)(F)F)CC2)c2ncncc12` (stereo partly drawn) [Example 89, 6-methyl-N-((6-methyl-4-(methylthio)-2-oxo-1,2-dihydropyridin-3-yl)methyl)-7-((R)-1-(4-((2,2,2-trifluoroethyl)amino)cyclohexyl)ethyl)-7H-pyrrolo[2,3-d]pyrimidine-5-carboxamide]?
IC50 (PRC2 containing wt EZH2; read-out: EZH2 (IC50)): < 0.5 nM; EC50 [1]: 10 to 100 nM

Which results are given for `CSc1cc(C)[nH]c(=O)c1CNC(=O)c1c(C)n([C@H](C)C2CCN(CC(F)(F)F)CC2)c2cc(F)ccc12` [Example 92, (R)-6-fluoro-2-methyl-N-((6-methyl-4-(methylthio)-2-oxo-1,2-dihydropyridin-3-yl)methyl)-1-(1-(1-(2,2,2-trifluoroethyl)piperidin-4-yl)ethyl)-1H-indole-3-carboxamide]?
IC50 (PRC2 containing wt EZH2; EZH2 (IC50)): < 0.5 nM; EC50 [1]: < 10 nM

With `COC1CN(C2CCC([C@@H](C)n3c(C)c(C(=O)NCc4c(SCF)cc(C)[nH]c4=O)c4ccccc43)CC2)C1` (stereo partly drawn) [Example 93, N-((4-((fluoromethyl)thio)-6-methyl-2-oxo-1,2-dihydropyridin-3-yl)methyl)-1-((R)-1-(4-(3-methoxyazetidin-1-yl)cyclohexyl)ethyl)-2-methyl-1H-indole-3-carboxamide] as the compound, how does the IC50 (PRC2 containing wt EZH2; read-out: EZH2 (IC50)) read?
Its IC50 is < 0.5 nM.

And the EC50 [1]?
Its EC50 is 10 to 100 nM.

How did the IC50 (PRC2 containing wt EZH2; read-out: EZH2 (IC50)) turn out when `CSc1cc(C)[nH]c(=O)c1CNC(=O)c1c(C)n([C@H](C)C2CCC(N3CCC(F)(F)C3)CC2)c2ccccc12` (stereo partly drawn) [Example 95, 1-((R)-1-(4-(3,3-difluoropyrrolidin-1-yl)cyclohexyl)ethyl)-2-methyl-N-((6-methyl-4-(methylthio)-2-oxo-1,2-dihydropyridin-3-yl)methyl)-1H-indole-3-carboxamide] was run?
Its IC50 is < 0.5 nM.

And the EC50 [1]?
Its EC50 is < 10 nM.

Which results are given for `CSc1cc(C)[nH]c(=O)c1CNC(=O)c1c(C)n([C@H](C)C2CCC(N3CC(C(F)F)C3)CC2)c2ncccc12` (stereo partly drawn) [Example 96, 1-((R)-1-(4-(3-(difluoromethyl)azetidin-1-yl)cyclohexyl)ethyl)-2-methyl-N-((6-methyl-4-(methylthio)-2-oxo-1,2-dihydropyridin-3-yl)methyl)-1H-pyrrolo[2,3-b]pyridine-3-carboxamide]?
IC50 (PRC2 containing wt EZH2; read-out: EZH2 (IC50)): < 0.5 nM; EC50 [1]: < 10 nM

`CSc1cc(C)[nH]c(=O)c1CNC(=O)c1c(C)n([C@H](C)C2CCN(CC(F)(F)F)CC2)c2cccc(C#N)c12` [Example 97, (R)-4-cyano-2-methyl-N-((6-methyl-4-(methylthio)-2-oxo-1,2-dihydropyridin-3-yl)methyl)-1-(1-(1-(2,2,2-trifluoroethyl)piperidin-4-yl)ethyl)-1H-indole-3-carboxamide] was tested. Which IC50 (PRC2 containing wt EZH2; read-out: EZH2 (IC50)) did it give?
Its IC50 is > 5 nM.

And the EC50 [1]?
The EC50 was > 100 nM.

How did the IC50 (PRC2 containing wt EZH2; EZH2 (IC50)) turn out when `CSc1cc(C)[nH]c(=O)c1CNC(=O)c1c(C)n([C@H](C)C2CCC(N3CC(F)C3)CC2)c2ncc(Cl)cc12` (stereo partly drawn) [Example 98, 5-chloro-1-((R)-1-(4-(3-fluoroazetidin-1-yl)cyclohexyl)ethyl)-2-methyl-N-((6-methyl-4-(methylthio)-2-oxo-1,2-dihydropyridin-3-yl)methyl)-1H-pyrrolo[2,3-b]pyridine-3-carboxamide] was run?
The IC50 was < 0.5 nM.

What about the EC50 [1] of the same compound?
Its EC50 is < 10 nM.

For `COC1CN(C2CCC([C@@H](C)n3c(C)c(C(=O)NCc4c(SC5CC5)cc(C)[nH]c4=O)c4ccccc43)CC2)C1` (stereo partly drawn) [Example 99, N-((4-(cyclopropylthio)-6-methyl-2-oxo-1,2-dihydropyridin-3-yl)methyl)-1-((R)-1-(4-(3-methoxyazetidin-1-yl)cyclohexyl)ethyl)-2-methyl-1H-indole-3-carboxamide], which IC50 (PRC2 containing wt EZH2; read-out: EZH2 (IC50)) is on record?
Its IC50 is < 0.5 nM.

And the EC50 [1]?
Its EC50 is 10 to 100 nM.

`CSc1cc(C)[nH]c(=O)c1CNC(=O)c1c(C)n([C@H](C)C2CCC(N3CC(OC4CC4)C3)CC2)c2ccccc12` (stereo partly drawn) [Example 100, 1-((R)-1-(4-(3-cyclopropoxyazetidin-1-yl)cyclohexyl)ethyl)-2-methyl-N-((6-methyl-4-(methylthio)-2-oxo-1,2-dihydropyridin-3-yl)methyl)-1H-indole-3-carboxamide] was tested. Which IC50 (PRC2 containing wt EZH2; read-out: EZH2 (IC50)) did it give?
The IC50 was < 0.5 nM.

And the EC50 [1]?
Its EC50 is < 10 nM.

Which results are given for `COc1cccc2c1c(C(=O)NCc1c(SC)cc(C)[nH]c1=O)c(C)n2[C@H](C)C1CCN(CC(F)(F)F)CC1` [Example 101, (R)-4-methoxy-2-methyl-N-((6-methyl-4-(methylthio)-2-oxo-1,2-dihydropyridin-3-yl)methyl)-1-(1-(1-(2,2,2-trifluoroethyl)piperidin-4-yl)ethyl)-1H-indole-3-carboxamide]?
IC50 (PRC2 containing wt EZH2; read-out: EZH2 (IC50)): 0.5 to 5 nM; EC50 [1]: 10 to 100 nM

What does the source list for `CSc1cc(C)[nH]c(=O)c1CNC(=O)c1c(C)n([C@H](C)C2CCN(CC(F)(F)F)CC2)c2cccc(Cl)c12` [Example 103, (R)-4-chloro-2-methyl-N-((6-methyl-4-(methylthio)-2-oxo-1,2-dihydropyridin-3-yl)methyl)-1-(1-(1-(2,2,2-trifluoroethyl)piperidin-4-yl)ethyl)-1H-indole-3-carboxamide]?
IC50 (PRC2 containing wt EZH2; EZH2 (IC50)): < 0.5 nM; EC50 [1]: < 10 nM

How did the IC50 (PRC2 containing wt EZH2; read-out: EZH2 (IC50)) turn out when `Cc1cc(SC(F)F)c(CNC(=O)c2c(C)n([C@H](C)C3CCN(CC(F)(F)F)CC3)c3ccccc23)c(=O)[nH]1` [Example 105, (R)-N-((4-((difluoromethyl)thio)-6-methyl-2-oxo-1,2-dihydropyridin-3-yl)methyl)-2-methyl-1-(1-(1-(2,2,2-trifluoroethyl)piperidin-4-yl)ethyl)-1H-indole-3-carboxamide] was run?
The IC50 was 0.5 to 5 nM.

And the EC50 [1]?
The EC50 was 10 to 100 nM.

What does the source list for `CSc1cc(C)[nH]c(=O)c1CNC(=O)c1c(C)n([C@H](C)C2CCC(N3CC[C@@H](F)C3)CC2)c2ncc(Cl)cc12` (stereo partly drawn) [Example 107, 5-chloro-1-((R)-1-(4-((R)-3-fluoropyrrolidin-1-yl)cyclohexyl)ethyl)-2-methyl-N-((6-methyl-4-(methylthio)-2-oxo-1,2-dihydropyridin-3-yl)methyl)-1H-pyrrolo[2,3-b]pyridine-3-carboxamide]?
IC50 (PRC2 containing wt EZH2; read-out: EZH2 (IC50)): < 0.5 nM; EC50 [1]: 10 to 100 nM

With `CSc1cc(C)[nH]c(=O)c1CNC(=O)c1c(C)n([C@H](C)C2CCC(N3CC(OC(F)F)C3)CC2)c2ncncc12` (stereo partly drawn) [Example 108, 7-((R)-1-(4-(3-(difluoromethoxy)azetidin-1-yl)cyclohexyl)ethyl)-6-methyl-N-((6-methyl-4-(methylthio)-2-oxo-1,2-dihydropyridin-3-yl)methyl)-7H-pyrrolo[2,3-d]pyrimidine-5-carboxamide] as the compound, how does the IC50 (PRC2 containing wt EZH2; read-out: EZH2 (IC50)) read?
Its IC50 is < 0.5 nM.

What about the EC50 [1] of the same compound?
Its EC50 is < 10 nM.

What does the source list for `Cc1cc(SC2CCC2)c(CNC(=O)c2c(C)n([C@H](C)C3CCN(CC(F)(F)F)CC3)c3ccccc23)c(=O)[nH]1` [Example 109, (R)-N-((4-(cyclobutylthio)-6-methyl-2-oxo-1,2-dihydropyridin-3-yl)methyl)-2-methyl-1-(1-(1-(2,2,2-trifluoroethyl)piperidin-4-yl)ethyl)-1H-indole-3-carboxamide]?
IC50 (PRC2 containing wt EZH2; read-out: EZH2 (IC50)): < 0.5 nM; EC50 [1]: 10 to 100 nM

Which results are given for `CSc1cc(C)[nH]c(=O)c1CNC(=O)c1c(C)n([C@H](C)C2CCC(N3CC(C(F)(F)F)C3)CC2)c2ncccc12` (stereo partly drawn) [Example 110, 2-methyl-N-((6-methyl-4-(methylthio)-2-oxo-1,2-dihydropyridin-3-yl)methyl)-1-((R)-1-(4-(3-(trifluoromethyl)azetidin-1-yl)cyclohexyl)ethyl)-1H-pyrrolo[2,3-b]pyridine-3-carboxamide]?
IC50 (PRC2 containing wt EZH2; read-out: EZH2 (IC50)): < 0.5 nM; EC50 [1]: 10 to 100 nM

For `CSc1cc(C)[nH]c(=O)c1CNC(=O)c1c(C)n([C@H](C)C2CCC(N3CCC(OC4CC4)C3)CC2)c2ncccc12` (stereo partly drawn) [Example 111, 1-((1R)-1-(4-(3-cyclopropoxypyrrolidin-1-yl)cyclohexyl)ethyl)-2-methyl-N-((6-methyl-4-(methylthio)-2-oxo-1,2-dihydropyridin-3-yl)methyl)-1H-pyrrolo[2,3-b]pyridine-3-carboxamide], which IC50 (PRC2 containing wt EZH2; read-out: EZH2 (IC50)) is on record?
The IC50 was < 0.5 nM.

And the EC50 [1]?
The EC50 was 10 to 100 nM.

What does the source list for `CSc1cc(C)[nH]c(=O)c1CNC(=O)c1c(C)n([C@H](C)C2CCN(CC(F)(F)F)CC2)c2cccc(C(F)F)c12` [Example 114, (R)-4-(difluoromethyl)-2-methyl-N-((6-methyl-4-(methylthio)-2-oxo-1,2-dihydropyridin-3-yl)methyl)-1-(1-(1-(2,2,2-trifluoroethyl)piperidin-4-yl)ethyl)-1H-indole-3-carboxamide]?
IC50 (PRC2 containing wt EZH2; read-out: EZH2 (IC50)): > 5 nM; EC50 [1]: > 100 nM

How did the IC50 (PRC2 containing wt EZH2; read-out: EZH2 (IC50)) turn out when `CSc1cc(C)[nH]c(=O)c1CNC(=O)c1c(C)n([C@H](C)C2CCC(N3CC(OC(F)F)C3)CC2)c2ncc(C)cc12` (stereo partly drawn) [Example 115, 1-((R)-1-(4-(3-(difluoromethoxy)azetidin-1-yl)cyclohexyl)ethyl)-2,5-dimethyl-N-((6-methyl-4-(methylthio)-2-oxo-1,2-dihydropyridin-3-yl)methyl)-1H-pyrrolo[2,3-b]pyridine-3-carboxamide] was run?
The IC50 was < 0.5 nM.

What about the EC50 [1] of the same compound?
The EC50 was < 10 nM.

Which results are given for `CSc1cc(C)[nH]c(=O)c1CNC(=O)c1c(C)n([C@H](C)C2CCC(N3CC(OCC(F)F)C3)CC2)c2ncccc12` (stereo partly drawn) [Example 116, 1-((R)-1-(4-(3-(2,2-difluoroethoxy)azetidin-1-yl)cyclohexyl)ethyl)-2-methyl-N-((6-methyl-4-(methylthio)-2-oxo-1,2-dihydropyridin-3-yl)methyl)-1H-pyrrolo[2,3-b]pyridine-3-carboxamide]?
IC50 (PRC2 containing wt EZH2; read-out: EZH2 (IC50)): < 0.5 nM; EC50 [1]: < 10 nM

With `CC[C@@H](C1CCC(N2CC(OC(F)F)C2)CC1)n1c(C)c(C(=O)NCc2c(SC)cc(C)[nH]c2=O)c2cccnc21` (stereo partly drawn) [Example 117, 1-((S)-1-(4-(3-(difluoromethoxy)azetidin-1-yl)cyclohexyl)propyl)-2-methyl-N-((6-methyl-4-(methylthio)-2-oxo-1,2-dihydropyridin-3-yl)methyl)-1H-pyrrolo[2,3-b]pyridine-3-carboxamide] as the compound, how does the IC50 (PRC2 containing wt EZH2; read-out: EZH2 (IC50)) read?
Its IC50 is 0.5 to 5 nM.

And the EC50 [1]?
The EC50 was 10 to 100 nM.
